Values quoted from earlier work as cited in patent US6426338B1, “Therapy for constipation” (priority 1997, dated 2002).

Tests used:
[1] = system: patients with constipation; conditions: colchicine alone, in a lower dose

| Structure (SMILES) | side-effect (long-term use as antibiotic) | long-term toxicity (given alone in the doses of Verne et al., long-term) | stimulation of defecation [1] |
| --- | --- | --- | --- |
| CN[C@H](CC(C)C)C(=O)N[C@H]1C(=O)N[C@@H](CC(N)=O)C(=O)N[C@H]2C(=O)N[C@H]3C(=O)N[C@H](C(=O)N[C@H](C(=O)O)c4cc(O)cc(O)c4-c4cc3ccc4O)[C@H](O)c3ccc(c(Cl)c3)Oc3cc2cc(c3O[C@@H]2O[C@H](CO)[C@@H](O)[C@H](O)[C@H]2O[C@H]2C[C@](C)(N)[C@H](O)[C@H](C)O2)Oc2ccc(cc2Cl)[C@H]1O [vancomycin] | neurotoxic |  |  |
| COc1cc2c(c(OC)c1OC)-c1ccc(OC)c(=O)cc1[C@@H](NC(C)=O)CC2 [colchicine] |  | can cause muscle and nerve damage (myopathy and neuropathy) | insufficient in most patients to stimulate defecation |
